In patent US7968139B2, “Packaged beverages” (Kao Corporation, priority 2000, dated 2011):

Experiments:
[1] = tested on: PPAR-dependent gene transcription in small intestine epithelial cell line IEC-6; assay: Test on PPAR-dependent gene transcription activation (PPAR-Luc reporter), IEC-6; format: cell-based; conditions: IEC-6, test concentration 10 μM, 24 hours
Experimental: (§1) The small intestine epithelial cell line IEC-6 and human hepatic cell line HepG2 were inoculated on a 12 well plate and cultured in DMEM (5% FCS) for 24 hours. A DNA chain containing PPAR responsive element (underlined portion) ([…]), a SV40 promoter gene, a PPAR reporter plasmid (PPAR-Luc) containing firefly luciferase gene, and a control plasmid having thymidine kinase promoter gene linked on the upstream of renilla luciferase gene were introduced simultaneously by using a transfection reagent (“Superfect transfection reagent”, product of Promega Corporation) each in an amount of 0.5 μg/well. The culture broth was then replaced with a DMEM (—FCS) medium containing a test substance, followed by incubation for further 24 hours. After washing with PBS, the cells were lysed using dual luciferase assay system (product of Promega Corporation). To the resulting lysate, a substrate solution containing luciferin was added and firefly and renilla luciferase activities were measured by a luminometer. In this test system, a PPAR-dependent gene transcriptional activator was searched for by measuring the transcriptional activity (luciferase activity of PPAR-dependent gene. It is to be noted that the PPAR-dependent gene transcriptional activity (luciferase activity) was defined as described below. PPAR-dependent gene transcriptional activity (luciferase activity)=(firefly luciferase activity by PPAR-Luc)/(renilla luciferase activity by TK-Luc)
(§2) In Table 8, PPAR-dependent gene transcription activating capacity of each test substance in IEC-6 and HepG2 cell lines is shown. In this table, PPAR-dependent transcriptional activity by the control is set at 100 and activity relative to it is indicated. As a positive control, fenofibrate was employed.

[2] = tested on: PPAR-dependent gene transcription in human hepatic cell line HepG2; assay: Test on PPAR-dependent gene transcription activation (PPAR-Luc reporter), HepG2; format: cell-based; conditions: HepG2, test concentration 10 μM, 24 hours
Experimental: as §1, §2

Catechin
PPAR-dependent transcriptional activity (luciferase activity) relative to control set at 100 [1]: 152
PPAR-dependent transcriptional activity (luciferase activity) relative to control set at 100 [2]: 149

O=C(O[C@@H]1Cc2c(O)cc(O)cc2O[C@@H]1c1cc(O)c(O)c(O)c1)c1cc(O)c(O)c(O)c1 [Epigallocatechin gallate]
PPAR-dependent transcriptional activity (luciferase activity) relative to control set at 100 [1]: 184
PPAR-dependent transcriptional activity (luciferase activity) relative to control set at 100 [2]: 172

Oc1cc(O)c2c(c1)O[C@H](c1ccc(O)c(O)c1)[C@H](O)C2 [Epicatechin]
PPAR-dependent transcriptional activity (luciferase activity) relative to control set at 100 [1]: 158
PPAR-dependent transcriptional activity (luciferase activity) relative to control set at 100 [2]: 150

O=C(O[C@@H]1Cc2c(O)cc(O)cc2O[C@@H]1c1ccc(O)c(O)c1)c1cc(O)c(O)c(O)c1 [Epicatechin gallate]
PPAR-dependent transcriptional activity (luciferase activity) relative to control set at 100 [1]: 178
PPAR-dependent transcriptional activity (luciferase activity) relative to control set at 100 [2]: 166
